# Values of other authors as cited in patent US20110105453A1, “Superoxide Dismutase Mimics For The Treatment Of Optic Nerve And Retinal Damage” (ALCON, INC., priority 2003, published 2011).
# Assays:
# [1] = test system: light-induced retinal damage in albino rats
# [2] = test system: NADH-coenzyme Q1 reductase; settings: uncouples mitochondrial respiration
# cytochrome c oxidase = settings: uncouples mitochondrial respiration
# [3] = test system: rat ocular ischemia-reperfusion model; settings: intravitreal injections (SOD protein)
compound,measurement,setting,value
"CC1(C)CC(O)CC(C)(C)N1[O] [4-hydroxy-2,2,6,6-tetramethylpiperidine-1-oxyl]",inhibition of light-induced retinal damage,[1],inhibited light-induced retinal damage
"NCCc1c[nH]c2c1C(=O)C(=O)C=C2 [T-4,5-D, tryptamine 4,5-dione]",inhibition of NADH-coenzyme Q1 reductase,[2],irreversible inhibition
same,inactivation of tryptophan hydroxylase,tryptophan hydroxylase,irreversibly inactivates
same,inhibition of cytochrome c oxidase,cytochrome c oxidase,irreversible inhibition
CNC(=S)NC [dimethylthiourea],functional protection,[3],40%
